Legend:
human TAS2R7 [1] = target: T1, human TAS2R7 (Homo sapiens, UniProt Q9NYW3, L71P); assay: Fluo-4 calcium assay, HEK293T/Gα16-gustducin44 cell line stably expressing TAS2R7; format: cell-based; conditions: stable cell line
T1 construct: RSS tag (first 45 amino acids of rat somatostatin receptor subtype 3, membrane export tag) (N); expressed in transfected cells
T1 sequence (Q9NYW3 with tags, fused parts or gaps L71P): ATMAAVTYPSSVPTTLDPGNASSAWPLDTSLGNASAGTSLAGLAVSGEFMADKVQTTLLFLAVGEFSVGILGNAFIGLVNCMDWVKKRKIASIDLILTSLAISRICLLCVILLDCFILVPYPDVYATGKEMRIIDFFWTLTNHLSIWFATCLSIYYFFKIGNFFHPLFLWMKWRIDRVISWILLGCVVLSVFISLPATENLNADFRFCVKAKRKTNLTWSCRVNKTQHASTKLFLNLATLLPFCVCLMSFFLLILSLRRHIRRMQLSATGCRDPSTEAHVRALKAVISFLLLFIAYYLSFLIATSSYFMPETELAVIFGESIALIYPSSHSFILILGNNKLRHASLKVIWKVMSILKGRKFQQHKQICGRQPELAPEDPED
Procedure: Cell lines that stably expresses TAS2R7 was generated by transfecting the pcDNA3.1Zeo-TAS2R7 construct into HEK293T/Gα16-gustducin 44 cells (formed as described in example 1). The host cell line HEK-293T is commercially available from the American Tissue Culture Collection (ATCC), ATCC®#CRL-11268.
TAS2R7 expressing cells were identified by their response to 2.6 mM L-menthol, which was determined via automated fluorimetric imaging on the FLIPR-TETRA™ (Molecular Devices, Sunnyvale, Calif., U.S.) as described in example 3. One clone was selected, resulting in the HEK293T/Gα16-gustducin 444/TAS2R7 cell line.
(§1) At day 0, the HEK293T cell line expressing Gα16-gustducin44 and a TAS2R7 bitter taste receptor formed as described in examples 2a or 2b was seeded in antibiotic-free growth medium (standard DMEM with 10% (v/v) heat-inactivated fetal bovine serum, 2 mM L-glutamine […]) into black wall/clear bottom 96-well plates, coated with poly(ethylenimine) (0.005% v/v) at a concentration of 15,000 cells per well and incubated for 48 hours in humidified atmosphere (37° C., 5% CO2).
(§2) At the time of the assay, the growth medium was discarded and the cells were in humidified atmosphere (37° C., 5% CO2) for 1 hour with […] of loading buffer consisting of 1.5 μM Fluo-4 AM and 2.5 mM probenecid (Sigma-Aldrich, St. Louis, Mo., U.S.) in DMEM.
(§3) Afterwards, the 96-well plate was washed 5 times with 100 μl of assay buffer (130 mM NaCl, 5 mM KCl, 10 mM HEPES, 2 mM CaCl2, and 5 mM dextrose, pH 7.4) per well, using an automated plate washer (BioTek). The plate was further incubated for 30 minutes at room temperature in the dark to allow for complete de-esterification of the Fluo-4. Afterwards the plate was washed 5 times with 100 μl of assay buffer per well, and reconstituted with 100 μl of assay buffer per well.
(§4) For assay reading the plate was placed in a Fluorometric Imaging Plate Reader (FLIPR) (FLIPR-TETRA™, Molecular Devices, Sunnyvale, Calif., US), and receptor activation was initiated by addition of 20 microliter of a tenfold concentrated agonist stock solution (to give the desired agonist end concentration when added to the 180 microliter assay buffer volume), which was prepared in assay buffer.
(§5) Fluorescence was continuously monitored for 20 seconds to give a signal baseline (averaged to give F0) prior to agonist addition and for 120 seconds after agonist addition. The change in signal divided by F0 gives ΔF/F0 indicated in the table, with ΔF being the maximum signal occurring within the 120 seconds minus the minimum signal (occurring within the 120 seconds after agonist addition).
All data was collected from at least two independent experiments each carried out in triplicate.
A concentration-response analysis was performed and EC50 values were calculated by nonlinear regression using the function f(x)=(a−d)/(1+(x/C)^nh)+d; with a=minimum signal, d=maximum signal, nh=hill coefficient, C=EC50, and x=agonist concentration. EC50 is the molar concentration of an agonist which produces 50% of the maximum possible effective response for that agonist.
(§6) The obtained calcium signals were corrected for the response of cells expressing only the G-Protein α subunit (Gα16-gustducin44) and normalized to the fluorescence of cells prior to the stimulus using ΔF/F0 (Fmax−Fmin/F0).
To confirm that the cell line formed in example 2b stably expresses the bitter taste receptor TAS2R7, a concentration-response curve for L-menthol was generated. […] The standard deviation (+/−STD) is also indicated.
Each sample (receptors as well as controls) contained a final concentration of 0.02% DMSO to allow for comparability of all examples below.

[2] = system: HEK293T Gα16gustducin44 cells (that do not express TAS2R7); assay: Fluo-4 calcium assay, negative control HEK293T Gα16gustducin44 cells that do not express TAS2R7; format: cell-based, human; conditions: cells without TAS2R7
human TAS2R7 [3] = target: T1, human TAS2R7; assay: Fluo-4 calcium assay, HEK293T/Gα16-gustducin44 cells transiently expressing TAS2R7; format: cell-based; conditions: for TAS2R7 ΔF/F0: transiently transfected cells
Procedure: On day 0, the HEK293T/Gα16-gustducin 44 cells were plated in 96-well black wall, clear-bottom plates at a density of 15,000 cells per well and grown overnight in growth media (DMEM with 10% (v/v) heat-inactivated fetal bovine serum, 2 mM L-glutamine, 100 units/ml penicillin, 100 μg/ml streptomycin).
On day 1, the media was changed to an antibiotic-free and serum-free DMEM. The cells were transfected with TAS2R7 using Lipofectamine 2000 (Invitrogen).
Per well of a 96-well plate, 150 ng of vector DNA (TAS2R7 expression vectors from example 1) was diluted in 12.5 μl of DMEM. In a second tube, 0.3 μl of Lipofectamine 2000 was diluted in 12.5 μl of DMEM and incubated for 5 min at room temperature. After the 5 min, both solutions were mixed and incubated for 20 min at RT. The growth medium in the plate was exchanged for 50 μl of DMEM and 25 μl of the lipofectamine/DNA mixture was incubated on the cells for 3-4 hours at 37° in a humidified atmosphere. This mixture was then replaced with an antibiotic-free, serum-containing DMEM.
24 hours post transfection, the cells were used in the Fluo-4 Calcium Assay as described in Example 3.
as §1, §2, §3, §4, §5, §6
The intracellular calcium response following the addition of L-menthol was determined in a HEK293T cell line stably expressing Gα16-gustducin44 and transiently expressing TAS2R7, formed as described in example 2a.

[4] = system: more than 15 of the other human TAS2Rs; assay: Activation test on other human TAS2Rs; format: cell-based; conditions: more than 15 other human TAS2Rs
TAS2R7 = target: T2, TAS2R7 (Homo sapiens, UniProt Q9NYW3); conditions: known from the art; cited from earlier work
T2 sequence (Q9NYW3 1-318): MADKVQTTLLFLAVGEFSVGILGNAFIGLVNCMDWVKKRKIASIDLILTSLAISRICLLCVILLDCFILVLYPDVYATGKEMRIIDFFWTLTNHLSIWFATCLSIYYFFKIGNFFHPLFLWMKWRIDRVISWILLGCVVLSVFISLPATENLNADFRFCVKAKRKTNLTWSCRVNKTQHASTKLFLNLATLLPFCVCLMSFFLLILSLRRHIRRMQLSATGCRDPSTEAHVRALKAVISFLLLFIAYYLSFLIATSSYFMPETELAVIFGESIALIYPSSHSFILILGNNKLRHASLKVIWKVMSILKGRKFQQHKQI

CC(C)[C@@H]1CC[C@@H](C)C[C@H]1O [L-menthol]
TAS2R7 ΔF/F0 (human TAS2R7 [1]; L-menthol 0.01 mM): 0.09
TAS2R7 ΔF/F0 (human TAS2R7 [1]; L-menthol 0.02 mM): 0.09
TAS2R7 ΔF/F0 (human TAS2R7 [1]; L-menthol 0.04 mM): 0.13
TAS2R7 ΔF/F0 (human TAS2R7 [1]; L-menthol 0.08 mM): 0.12
TAS2R7 ΔF/F0 (human TAS2R7 [1]; L-menthol 0.16 mM): 0.23
TAS2R7 ΔF/F0 (human TAS2R7 [1]; L-menthol 0.33 mM): 0.61
TAS2R7 ΔF/F0 (human TAS2R7 [1]; L-menthol 0.65 mM): 1.03
TAS2R7 ΔF/F0 (human TAS2R7 [1]; L-menthol 1.30 mM): 1.16
TAS2R7 ΔF/F0 (human TAS2R7 [1]; L-menthol 2.60 mM): 0.92
activation of TAS2R7 (human TAS2R7 [1]): activated
EC50 (human TAS2R7 [1]; nonlinear regression of concentration-response, read-out: calculated EC50 value for TAS2R7): 310 µM
Neg. Control ΔF/F0 ([2]; L-menthol 0.01 mM): 0.09
Neg. Control ΔF/F0 ([2]; L-menthol 0.02 mM): 0.08
Neg. Control ΔF/F0 ([2]; L-menthol 0.04 mM): 0.08
Neg. Control ΔF/F0 ([2]; L-menthol 0.08 mM): 0.10
Neg. Control ΔF/F0 ([2]; L-menthol 0.16 mM): 0.15
Neg. Control ΔF/F0 ([2]; L-menthol 0.33 mM): 0.34
Neg. Control ΔF/F0 ([2]; L-menthol 0.65 mM): 0.41
Neg. Control ΔF/F0 ([2]; L-menthol 1.30 mM): 0.53
Neg. Control ΔF/F0 ([2]; L-menthol 2.60 mM): 0.65
change above the background signal in negative control [2]: did not show a significant change above the background signal
TAS2R7 ΔF/F0 (human TAS2R7 [3]; L-menthol 0.01 mM): 0.09
TAS2R7 ΔF/F0 (human TAS2R7 [3]; L-menthol 0.02 mM): 0.08
TAS2R7 ΔF/F0 (human TAS2R7 [3]; L-menthol 0.04 mM): 0.08
TAS2R7 ΔF/F0 (human TAS2R7 [3]; L-menthol 0.08 mM): 0.10
TAS2R7 ΔF/F0 (human TAS2R7 [3]; L-menthol 0.16 mM): 0.15
TAS2R7 ΔF/F0 (human TAS2R7 [3]; L-menthol 0.33 mM): 0.34
TAS2R7 ΔF/F0 (human TAS2R7 [3]; L-menthol 0.65 mM): 0.41
TAS2R7 ΔF/F0 (human TAS2R7 [3]; L-menthol 1.30 mM): 0.53
TAS2R7 ΔF/F0 (human TAS2R7 [3]; L-menthol 2.60 mM): 0.65
calcium signalling upon addition (human TAS2R7 [3]; cells transiently expressing human TAS2R7): significant concentration-dependent increase
activation of other human TAS2Rs [4]: not to be activated

CCN(CC)CCCC(C)Nc1ccnc2cc(Cl)ccc12 (centres unmarked) [chloroquine]
response of TAS2R7 (TAS2R7): known to respond

CC1CC[C@H](C(C)C)[C@@H](O)C1 (stereo partly drawn) [D-menthol]
activation of TAS2R7 (human TAS2R7 [3]; similar results as for L-menthol): shown to activate TAS2R7

C=C[C@H]1C[N@@]2CC[C@H]1C[C@H]2[C@H](O)c1ccnc2ccc(OC)cc12 [quinine]
response of TAS2R7 (TAS2R7): known to respond
